Entries after “also recorded” stand apart in the source; their conditions may differ.
Biological target: T1, TRPV1:V1 (Rattus norvegicus, UniProt O35433)
T1 construct: expressed in transfected cells; host or cells: WT HEK 293 (transient)
Assay: [Ca2+]i recordings (Fura-2), TRPV1:V1 in HEK 293 cells
Format: cell-based
Procedure: Based on the findings described above, we wondered whether AC1903—which is typically used as a TRPC5 inhibitor at concentrations of 30–100 μM in cellular assays ([29], [56])—might have limited selectivity for TRPC5 channels and whether its effect on intracellular G418 levels and PTC readthrough might be the consequence of inhibition of other or multiple targets. All well-characterized TRPC channel inhibitors reported to date modulate multiple TRP(C) channels ([34], [35], [36]). […] Because limited data for the selectivity of AC1903 are available in the public domain, we decided to profile AC1903 against a selection of calcium-permeable cation channels by intracellular calcium ([Ca^2+]i) recordings using well-characterized cell lines and TRP channel activators ([46], [57], [58]), and the Ca^2+ indicator Fura-2. In these assays, cells (HEK 293, HEK T-REx, or CHO) overexpressing the relevant ion channel protein and loaded with Fura-2 AM (a cell-permeable precursor of Fura-2) were preincubated with various concentrations of AC1903 or vehicle (DMSO) for 30 min. Then, changes in ratiometric fluorescence (from background) were recorded upon addition of the respective ion channel activator.
HEK T-REx cells expressing tetracycline-inducible TRPC4, TRPC5, TRPC5–C1,TRPC4–C1, and hPiezo1 have been described previously ([46], [57], [59], [78]). Cloning of TRPC3 has been described previously ([79]). To create cells stably expressing tetracycline-inducible TRPC3, HEK T-REx cells were transfected with pcDNA4/TO/hTRPC3 using jetPRIME transfection reagent (VWR) according to manufacturer’s instructions. After 48 h cells were put under antibiotic selection using 400 μg/ml zeocin and 10 μg/ml Blasticidin S (Invivogen)). Medium changes were carried out every 2 to 3 days to remove dead cells. […]

T1 sequence (O35433 whole entry): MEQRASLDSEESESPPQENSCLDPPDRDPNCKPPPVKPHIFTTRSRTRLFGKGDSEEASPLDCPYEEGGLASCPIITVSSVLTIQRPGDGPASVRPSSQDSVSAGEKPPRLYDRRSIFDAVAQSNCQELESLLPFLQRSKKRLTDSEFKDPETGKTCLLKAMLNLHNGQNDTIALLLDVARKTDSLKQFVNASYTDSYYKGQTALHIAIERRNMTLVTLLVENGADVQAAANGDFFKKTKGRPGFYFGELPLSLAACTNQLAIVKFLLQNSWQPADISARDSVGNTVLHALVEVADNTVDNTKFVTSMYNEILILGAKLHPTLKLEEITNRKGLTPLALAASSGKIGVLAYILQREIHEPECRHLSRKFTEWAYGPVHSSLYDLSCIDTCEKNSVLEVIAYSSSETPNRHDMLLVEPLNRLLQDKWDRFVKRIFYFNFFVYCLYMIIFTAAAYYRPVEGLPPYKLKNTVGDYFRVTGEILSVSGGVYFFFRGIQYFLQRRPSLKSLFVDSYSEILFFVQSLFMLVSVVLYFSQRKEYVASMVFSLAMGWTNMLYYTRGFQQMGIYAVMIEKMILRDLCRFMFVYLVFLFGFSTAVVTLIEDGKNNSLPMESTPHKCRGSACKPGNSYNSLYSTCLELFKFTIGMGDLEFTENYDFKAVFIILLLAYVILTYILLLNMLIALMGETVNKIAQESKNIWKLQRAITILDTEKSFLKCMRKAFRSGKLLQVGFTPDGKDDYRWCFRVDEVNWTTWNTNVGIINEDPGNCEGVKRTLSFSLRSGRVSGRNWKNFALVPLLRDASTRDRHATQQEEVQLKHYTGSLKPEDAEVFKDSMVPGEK

effect on capsaicin-activated TRPV1 (AC1903 100 μM): small effects
IC50 (HEK 293, activator capsaicin (500 nM)): > 50 µM
Compound: c1ccc(Cn2c(NCc3ccco3)nc3ccccc32)cc1 [AC1903]
inhibition of capsaicin-activated TRPV1 (AC1903 up to 30 μM): does not affect; also recorded: did not inhibit

— paper PMC8808171, “Nonselective TRPC channel inhibition and suppression of aminoglycoside-induced premature termination codon readthrough by the small molecule AC1903” (The Journal of Biological Chemistry, 2022)
